Assays:
[1] = biological target: FGFR3 (SEQ ID NO: 5, amino acids 449-759) (Homo sapiens (Human), UniProt P22607); test: LC/MS FGFR3 kobs assay (covalent protein modification); assay type: binding; conditions: 500 nM FGFR3, 3 μM compound
Experimental: (§1) The LC/MS FGFR1 and FGFR3 kobs assays were conducted as follows. […] At each time point, the reaction was quenched with 20 μL of 0.4% formic acid. The extent of protein modification by each compound was determined by LC/MS on an Agilent Technologies 6520 Q-TOF LC/MS. Protein signals were then automatically deconvoluted using Agilent Masshunter software. Deconvoluted mass signals were exported to Tibco Spotfire data analysis program for further processing and normalization.
(§2) Data analysis included five steps. First, the signals for the “DMSO Controls” were analyzed to determine the percent of signal associated with unmodified FGFR1 or FGFR3 at each time point. Next, the percent of the signal associated with the covalent modification was determined. Third, the average nonmodified “DMSO Control” signal was used to normalize the modified protein signals at each time point. The percent of unmodified protein was fit to an exponential decay model where A0 is the Percent Unmodified at the start of the reaction, and kobs is the observed rate constant over the time period.
Table EC contains kobs values for compounds tested in these assays, presented as the average of multiple determinations if multiple determinations were made. ND=not determined.

[2] = biological target: phosphorylated FGFR3 (SEQ ID NO: 5, amino acids 449 to 759) (Homo sapiens (Human), UniProt P22607); test: FGFR enzyme binding assay (HTRF tracer displacement), FGFR3; conditions: 5 nM phosphorylated FGFR3, average of multiple determinations if made
Experimental: (§3) The potency of compounds inhibiting human isoforms of FGFR kinase was determined using Life Technologies' Homogeneous Time Resolved Fluorescence (HTRF)-based binding assay technology. […] After a 60 minute incubation at 22° C., the extent of tracer displacement was determined using a PerkinElmer EnVision multimode plate reader via HTRF dual wavelength detection, and the percent of control (POC) was calculated using a ratiometric emission factor. One hundred POC was determined using no test compound, and 0 POC was determined in the presence of 1 μM of an appropriate control inhibitor.

[3] = biological target: dephosphorylated FGFR1 (SEQ ID NO: 1, amino acids 458 to 765) (Homo sapiens (Human), UniProt P11362); test: FGFR enzyme binding assay (HTRF tracer displacement), FGFR1; conditions: 5 nM dephosphorylated FGFR1, average of multiple determinations if made
Experimental: as §3

[4] = biological target: FGFR1 (SEQ ID NO: 1, amino acids 458-765) (Homo sapiens (Human), UniProt P11362); test: LC/MS FGFR1 kobs assay (covalent protein modification); assay type: binding; conditions: 500 nM FGFR1, 3 μM compound
Experimental: as §1, §2

[5] = biological target: recombinant human FGFR2 cytoplasmic domain (amino acids 403-822) (Homo sapiens (Human), UniProt P21802); test: FGFR2 enzyme activity assay (LanthaScreen TR-FRET); assay type: biochemical; conditions: 15 μM ATP, 20 min incubation at 22° C., average of multiple determinations if made, read-out: FGFR2 Enz FRET IC50
Experimental: FGFR2 kinase activity was measured by the Invitrogen LanthaScreen™ Assay technology which directly measures the amount of substrate phosphorylation by TR-FRET using a fluorescently-labeled peptide and Europium-labeled antibody. Briefly, […] His-tagged recombinant human FGFR2 cytoplasmic domain (amino acids 403-822) (Life Technologies Cat. No. PR5332A) was incubated with 100 nM Alexa Fluor® 647-Poly-GT Peptide Substrate (Life Technologies Cat. No. PV5836) and 15 μM ATP along with test compound in a buffer consisting of 250 mM HEPES, 25 mM MgCl2, 0.05% TritonX-100, pH 7.5, and 2% DMSO. […] After a 20 minute incubation at 22° C., an equal volume of 2 nM LanthaScreen® Eu-PY20 Antibody (Life Technologies Cat. No. PV5691) and 10 mM EDTA were added to quench the kinase reaction and start the detection reaction. After an additional 60 minute incubation at 22° C., the reaction was measured using a PerkinElmer EnVision multimode plate reader via TR-FRET dual wavelength detection, and the percent of control (POC) calculated using a ratiometric emission factor. 100 POC was determined using no test compounds and 0 POC was determined using no enzyme. The POC values were fit to a 4-parameter logistic curve as a function of the concentration of the compound, and the IC50 value is the point where the curve crosses 50 POC.

[6] = biological target: recombinant human FGFR3 (amino acids R397-T806) (Homo sapiens (Human), UniProt P22607); test: FGFR3 enzyme activity assay (LanthaScreen TR-FRET); assay type: biochemical; conditions: 25 μM ATP, 10 min incubation at 22° C., average of multiple determinations if made, read-out: FGFR3 Enz FRET IC50
Experimental: FGFR3 kinase activity was measured by the Invitrogen LanthaScreen™ Assay technology which directly measures the amount of substrate phosphorylation by TR-FRET using a fluorescently-labeled peptide and Europium-labeled antibody. Briefly, […] N-terminal GST-HIS6 fusion protein with a 3C cleavage site recombinant human FGFR3 (amino acids R397-T806) (ProQinase Cat. No. 1068-0000-1) was incubated with 100 nM Alexa Fluor® 647-Poly-GT Peptide Substrate (Life Technologies Cat. No. PV5836) and 25 μM ATP along with test compound in a buffer consisting of 250 mM HEPES, 25 mM MgCl2, 0.05% TritonX-100, pH 7.5, and 2% DMSO. […] After a 10 minute incubation at 22° C., an equal volume of 2 nM LanthaScreen® Eu-PY20 Antibody (Life Technologies Cat. No. PV5691) and 10 mM EDTA were added to quench the kinase reaction and start the detection reaction. After an additional 60 minute incubation at 22° C., the reaction was measured using a PerkinElmer EnVision multimode plate reader via TR-FRET dual wavelength detection, and the percent of control (POC) calculated using a ratiometric emission factor. 100 POC was determined using no test compounds and 0 POC was determined using no enzyme. The POC values were fit to a 4-parameter logistic curve as a function of the concentration of the compound, and the IC50 value is the point where the curve crosses 50 POC.

[7] = biological target: recombinant human FGFR1 catalytic domain (amino acids 308-731) (Homo sapiens (Human), UniProt P11362); test: FGFR1 enzyme activity assay (LanthaScreen TR-FRET); assay type: biochemical; conditions: 20 min incubation at 22° C., average of multiple determinations if made, read-out: FGFR1 Enz FRET IC50
Experimental: FGFR1 kinase activity was measured by the Invitrogen LanthaScreen™ Assay technology which directly measures the amount of substrate phosphorylation by Time-resolved fluorescence energy transfer (TR-FRET) using a fluorescently-labeled peptide and Europium-labeled antibody. Briefly, […] His-tagged recombinant human FGFR1 catalytic domain (amino acids 308-731) (Life Technologies Cat. No. PR4660A) was incubated with 100 nM Alexa Fluor® 647-Poly-GT Peptide Substrate (Life Technologies Cat. No. PV5836) and […] ATP along with test compound in a buffer consisting of 250 mM HEPES, 25 mM MgCl2, 0.05% TritonX-100, pH 7.5, and 2% DMSO. […] After a 20 minutes incubation at 22° C., an equal volume of 2 nM LanthaScreen® Eu-PY20 Antibody (Life Technologies Cat. No. PV5691) and 10 mM EDTA was added to quench the kinase reaction and start the detection reaction. After an additional 60 minute incubation at 22° C., the reaction was measured using a PerkinElmer EnVision multimode plate reader via TR-FRET dual wavelength detection, and the percent of control (POC) calculated using a ratiometric emission factor. 100 POC was determined using no test compounds and 0 POC was determined using no enzyme. The POC values were fit to a 4-parameter logistic curve as a function of the concentration of the compound, and the IC50 value is the point where the curve crosses 50 POC.

Chain of dephosphorylated FGFR1 (SEQ ID NO: 1, amino acids 458 to 765) (P11362 458-765): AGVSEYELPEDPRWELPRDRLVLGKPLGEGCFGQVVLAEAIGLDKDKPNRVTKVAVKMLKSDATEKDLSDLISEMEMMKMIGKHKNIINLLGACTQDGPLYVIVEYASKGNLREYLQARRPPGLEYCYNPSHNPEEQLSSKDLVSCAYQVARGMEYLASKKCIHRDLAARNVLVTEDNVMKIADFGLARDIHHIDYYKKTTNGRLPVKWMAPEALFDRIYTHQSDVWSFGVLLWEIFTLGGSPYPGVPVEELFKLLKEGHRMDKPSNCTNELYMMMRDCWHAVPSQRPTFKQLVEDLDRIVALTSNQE
Chain of FGFR1 (SEQ ID NO: 1, amino acids 458-765) (P11362 458-765): as above
Chain of FGFR3 (SEQ ID NO: 5, amino acids 449-759) (P22607 449-759): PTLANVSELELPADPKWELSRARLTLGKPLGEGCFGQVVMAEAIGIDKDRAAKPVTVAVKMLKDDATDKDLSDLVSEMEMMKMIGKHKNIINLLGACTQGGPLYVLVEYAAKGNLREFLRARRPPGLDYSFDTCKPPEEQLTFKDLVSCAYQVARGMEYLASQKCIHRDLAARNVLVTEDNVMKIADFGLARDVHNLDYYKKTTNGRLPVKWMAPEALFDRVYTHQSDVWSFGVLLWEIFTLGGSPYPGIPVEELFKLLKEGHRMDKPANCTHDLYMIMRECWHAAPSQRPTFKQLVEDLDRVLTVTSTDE
Chain of phosphorylated FGFR3 (SEQ ID NO: 5, amino acids 449 to 759) (P22607 449-759): as above
Chain of recombinant human FGFR2 cytoplasmic domain (amino acids 403-822) (P21802 402-821): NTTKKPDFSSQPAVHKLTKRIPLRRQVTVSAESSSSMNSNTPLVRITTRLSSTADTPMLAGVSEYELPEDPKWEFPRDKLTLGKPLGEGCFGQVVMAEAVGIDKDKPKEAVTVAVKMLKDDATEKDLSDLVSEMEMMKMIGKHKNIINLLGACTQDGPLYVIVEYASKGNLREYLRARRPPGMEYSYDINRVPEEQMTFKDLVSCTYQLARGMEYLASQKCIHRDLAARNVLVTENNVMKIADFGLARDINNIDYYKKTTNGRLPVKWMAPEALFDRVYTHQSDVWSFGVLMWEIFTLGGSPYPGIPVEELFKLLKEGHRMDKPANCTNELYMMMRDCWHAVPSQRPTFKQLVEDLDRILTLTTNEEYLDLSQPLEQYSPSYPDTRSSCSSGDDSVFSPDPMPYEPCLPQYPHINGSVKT
Chain of recombinant human FGFR3 (amino acids R397-T806) (P22607 397-806): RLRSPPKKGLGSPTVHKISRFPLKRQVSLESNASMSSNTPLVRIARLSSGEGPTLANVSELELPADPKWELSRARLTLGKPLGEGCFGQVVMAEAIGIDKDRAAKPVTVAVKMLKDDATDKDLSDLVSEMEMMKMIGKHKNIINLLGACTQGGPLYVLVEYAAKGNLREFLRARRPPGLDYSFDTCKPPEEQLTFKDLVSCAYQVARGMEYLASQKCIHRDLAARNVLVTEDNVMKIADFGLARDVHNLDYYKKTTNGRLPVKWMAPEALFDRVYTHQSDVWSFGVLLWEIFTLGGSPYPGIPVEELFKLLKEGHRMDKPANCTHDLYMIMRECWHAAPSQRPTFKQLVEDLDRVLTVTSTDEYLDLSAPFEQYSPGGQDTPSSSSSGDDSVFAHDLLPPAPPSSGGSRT
Chain of recombinant human FGFR1 catalytic domain (amino acids 308-731) (P11362 other isoform, or with tags, fused parts or gaps): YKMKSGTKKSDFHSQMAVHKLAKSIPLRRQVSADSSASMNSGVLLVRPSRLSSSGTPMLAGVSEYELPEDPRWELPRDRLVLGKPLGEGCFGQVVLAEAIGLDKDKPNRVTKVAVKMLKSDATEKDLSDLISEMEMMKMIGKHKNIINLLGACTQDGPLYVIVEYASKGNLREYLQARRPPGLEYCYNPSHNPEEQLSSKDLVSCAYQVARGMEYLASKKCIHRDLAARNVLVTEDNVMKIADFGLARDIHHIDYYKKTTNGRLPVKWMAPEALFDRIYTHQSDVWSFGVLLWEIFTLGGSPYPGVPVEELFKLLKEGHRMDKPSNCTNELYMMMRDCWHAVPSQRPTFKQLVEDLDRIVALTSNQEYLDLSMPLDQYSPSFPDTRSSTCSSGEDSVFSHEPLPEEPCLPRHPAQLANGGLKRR

Row | FGFR3 Enz kobs [1] [min⁻¹] | IC50 [2] [nM] | IC50 [3] [nM] | FGFR1 Enz kobs [4] [min⁻¹] | IC50 [5] [nM] | IC50 [6] [nM] | IC50 [7] [nM] | Structure (SMILES)
1 | 0.00163 | 8 | 45 | 0.00041 | 7 | 6 | 17 | C=CC(=O)N1CCC[C@@H](C(=O)N2CCC(n3cc(-c4cc(OC)c5c(C#N)cnn5c4)cn3)CC2)C1 [Example 17, (R)-6-(1-(1-(1-acryloylpiperidine-3-carbonyl)piperidin-4-yl)-1H-pyrazol-4-yl)-4-methoxypyrazolo[1,5-a]pyridine-3-carbonitrile]
2 | 0.00184 | 44 | 191 | 0.00017 | 13 | 21 | 63 | C=CC(=O)N1CCN(c2cccc(-n3cc(-c4cc(OC)c5c(C#N)cnn5c4)cn3)c2)CC1 [Example 27, 6-(1-(3-(4-acryloylpiperazin-1-yl)phenyl)-1H-pyrazol-4-yl)-4-methoxypyrazolo[1,5-a]pyridine-3-carbonitrile]
3 | 0.00501 | 22 | 177 | 0.00093 | 5 | 4 | 35 | C=CC(=O)N1CC2(CC(C(=O)N3CCC(n4cc(-c5cc(OC)c6c(C#N)cnn6c5)cn4)CC3)C2)C1 [Example 47, 6-(1-(1-(2-acryloyl-2-azaspiro[3.3]heptane-6-carbonyl)piperidin-4-yl)-1H-pyrazol-4-yl)-4-methoxypyrazolo[1,5-a]pyridine-3-carbonitrile]
4 | 0.00114 | 25 | 109 | 0.00071 | 3 | 7 | 11 | C=CC(=O)N1CCC2(CC1)CC(C(=O)N1CCC(n3cc(-c4cc(OC)c5c(C#N)cnn5c4)cn3)CC1)C2 [Example 48, 6-(1-(1-(7-acryloyl-7-azaspiro[3.5]nonane-2-carbonyl)piperidin-4-yl)-1H-pyrazol-4-yl)-4-methoxypyrazolo[1,5-a]pyridine-3-carbonitrile]
5 | 0.0015 | 25 | 214 | 0.00051 | 7 | 6 | 34 | C=CC(=O)N1CC[C@H](C(=O)N2CC[C@@H](n3cc(-c4cc(OC)c5c(C#N)cnn5c4)cn3)C2)C1 [Example 57, 6-(1-((R)-1-((S)-1-acryloylpyrrolidine-3-carbonyl)pyrrolidin-3-yl)-1H-pyrazol-4-yl)-4-methoxypyrazolo[1,5-a]pyridine-3-carbonitrile]
6 | 0.00158 | 41 | 290 | 0.00058 | 8 | 8 | 55 | C=CC(=O)N1CC[C@@H](C(=O)N2CC[C@@H](n3cc(-c4cc(OC)c5c(C#N)cnn5c4)cn3)C2)C1 [Example 58, 6-(1-((R)-1-((R)-1-acryloylpyrrolidine-3-carbonyl)pyrrolidin-3-yl)-1H-pyrazol-4-yl)-4-methoxypyrazolo[1,5-a]pyridine-3-carbonitrile]
7 | 0.0013 | 62 | 199 | 0.0005 | 7 | 3 | 26 | C=CC(=O)N1CCC[C@H](C(=O)N2CC[C@H](n3cc(-c4cc(OC)c5c(C#N)cnn5c4)cn3)C2)C1 [Example 63, 6-(1-((S)-1-((S)-1-acryloylpiperidine-3-carbonyl)pyrrolidin-3-yl)-1H-pyrazol-4-yl)-4-methoxypyrazolo[1,5-a]pyridine-3-carbonitrile]
8 | 0.00341 | 12 | 47 | 0.00146 | 3 | 5 | 8 | C=CC(=O)Nc1cccc(C(=O)N2CC[C@H](n3cc(-c4cc(OC)c5c(C#N)cnn5c4)cn3)C2)c1 [Example 67, (S)-N-(3-(3-(4-(3-cyano-4-methoxypyrazolo[1,5-a]pyridin-6-yl)-1H-pyrazol-1-yl)pyrrolidine-1-carbonyl)phenyl)acrylamide]
9 | 0.00117 | 7 | 36 | 0.00049 | 5 | 3 | 25 | C=CC(=O)N1CC[C@@H](C(=O)N2CC[C@H](n3cc(-c4cc(OC)c5c(C#N)cnn5c4)cn3)C2)C1 [Example 72, 6-(1-((S)-1-((R)-1-acryloylpyrrolidine-3-carbonyl)pyrrolidin-3-yl)-1H-pyrazol-4-yl)-4-methoxypyrazolo[1,5-a]pyridine-3-carbonitrile]
